The test has as its system T1, primary mouse cortical neurons.
T1 construct: primary cortical neurons, DIV 10
Put plainly: cells. The following applies: Cortical neurone, 20 h, read-out: % inhibition, inhibition of NMDA-induced cell death (protection score), 30 min pre-treatment. Also noted: Protection from NMDA-induced (30 uM, 10 min) neuronal death; Hoechst nuclear morphology by automated microscopy. In outline: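 On DIV 10, primary mouse cortical neurons were given compound at 10 μM for 30 min at 37 °C, then 30 μM NMDA for 10 min, washed, and kept 20 h with compound. Dead cells were scored by nuclear morphology, and % protection was derived from survival relative to vehicle + NMDA and untreated controls.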

Counter-ions that a name gives are not always drawn.

In the case of `CC(=O)NC[C@H]1CN(c2ccc(N3CCOCC3)c(F)c2)C(=O)O1` [Linezolid (Zyvox)], the inhibition at 10 µM was found to be 37%.

`CS(=O)(=O)OCCCCOS(C)(=O)=O` [Busulfan (Myleran, Busulfex)]: the inhibition at 10 µM turned out to be 15.7%.

Turning to `NS(=O)(=O)c1cc(C(=O)O)c(NCc2ccco2)cc1Cl` [Furosemide (Lasix)], the inhibition at 10 µM is 32.1%. Regarding `C#C[C@]1(O)C=C[C@H]2[C@@H]3CCC4=CC(=O)CC[C@@H]4[C@H]3CC[C@@]21CC` [Gestodene], the inhibition at 10 µM is -1.48%. On to `CN1CCN(c2c(F)cc3c(=O)c(C(=O)O)cn(CCF)c3c2F)CC1` [Fleroxacin (Quinodis)], for which the inhibition at 10 µM is -8.01%.

On to `O=c1c(O)c(-c2ccc(O)cc2)oc2cc(O)cc(O)c12` [Kaempferol], for which the inhibition at 10 µM was -2.58%. Take `CN1[C@@H]2CC[C@H]1C[C@@H](OC(=O)c1c[nH]c3ccccc13)C2` [Tropisetron]: the inhibition at 10 µM is -4.08%.

Turning to `CCOc1nc2cccc(C(=O)OC(C)OC(=O)OC3CCCCC3)c2n1Cc1ccc(-c2ccccc2-c2nn[nH]n2)cc1` (stereo not shown) [Candesartan cilexetil (Atacand)], the inhibition at 10 µM came out at 7.42%. For `NCCCC(O)(P(=O)(O)O)P(=O)(O)O` [Alendronate (Fosamax)], the inhibition at 10 µM was found to be 40.1%. To `CCCCC1C(=O)N(c2ccccc2)N(c2ccccc2)C1=O` [Phenylbutazone (Butazolidin, Butatron)] belongs 47.4%; to `CC(NC(C)(C)C)C(=O)c1cccc(Cl)c1` (stereo not shown) [Amfebutamone (Bupropion)], 2.08%. Turning to `O=c1c(-c2ccc(O)cc2)coc2cc(O)ccc12` [Daidzein], the inhibition at 10 µM is -2.08%. Consider `C[C@H]1[C@H](OC(=O)CCC(=O)O)O[C@@H]2O[C@@]3(C)CC[C@H]4[C@H](C)CC[C@@H]1[C@@]24OO3` [Artesunate], for which the inhibition at 10 µM was -3.35%.

As to `Cc1cnc(C(=O)O)c[n+]1[O-]` [Acipimox], the inhibition at 10 µM is -0.00389%. Regarding `CN(C)c1nc(N(C)C)nc(N(C)C)n1` [Altretamine (Hexalen)], the inhibition at 10 µM is -3.75%. On to `O=C1[C@H](CC[C@H](O)c2ccc(F)cc2)[C@@H](c2ccc(O)cc2)N1c1ccc(F)cc1` [Ezetimibe (Zetia)], for which the inhibition at 10 µM amounted to 21.4%. Take `COc1ccc(Cl)cc1C(=O)NCCc1ccc(S(=O)(=O)NC(=O)NC2CCCCC2)cc1` [Glyburide (Diabeta)]: the inhibition at 10 µM amounted to 0.906%. As for `O=c1c(O)c(-c2cc(O)c(O)c(O)c2)oc2cc(O)cc(O)c12` [Myricetin (Cannabiscetin)], the inhibition at 10 µM was -1.08%. Consider `C[C@@H]1O[C@@H](O[C@H]2[C@H](Oc3cc(O)c4c(c3)O[C@H](c3ccc(O)cc3)CC4=O)O[C@H](CO)[C@@H](O)[C@@H]2O)[C@H](O)[C@H](O)[C@H]1O` [Naringin (Naringoside)], for which the inhibition at 10 µM is -0.553%.

Take `COc1c(O)cc2c(c1O)[C@@H]1O[C@H](CO)[C@@H](O)[C@H](O)[C@H]1OC2=O` [Bergenin (Cuscutin)]: the inhibition at 10 µM was 1.66%. For the molecule `Nc1ccc(S(N)(=O)=O)cc1` [Sulfanilamide], the inhibition at 10 µM came to 17.7%. `COc1c(N2CCNC(C)C2)c(F)cc2c(=O)c(C(=O)O)cn(C3CC3)c12` (stereo not shown) [Gatifloxacin]: the inhibition at 10 µM is -10.3%. On to `N=C(N)NC(=N)N1CCOCC1` [Moroxydine], for which the inhibition at 10 µM was determined as 0.926%.

Consider `NC(=O)CC[C@H](N)C(=O)O` [L-Glutamine], for which the inhibition at 10 µM was -2.01%. To `CN[C@@H]1[C@H](O)[C@H](NC)[C@H]2O[C@@]3(O)C(=O)C[C@@H](C)O[C@H]3O[C@@H]2[C@H]1O` [Spectinomycin hydrochloride] belongs -1.03%; to `Cn1cnc2c1c(=O)[nH]c(=O)n2C` [Theobromine (3,7-Dimethylxanthine)], 0.993%; to `Oc1cc2c(cc1O)[C@@H]1c3ccc(O)c(O)c3OC[C@]1(O)C2` [Hematoxylin (Hydroxybrazilin)], 1.27%. Turning to `O=c1[nH]cnc2nc[nH]c12` [Hypoxanthine], the inhibition at 10 µM was 1.08%.

The term inhibition denotes the change of the read-out against control, counted positive when it falls.

The values above are taken from publication PMC7489219 (Molecular Brain, 2020).
